Assay results published in patent US20090270413A1, “DI-T-BUTYLPHENYL PIPERAZINES AS CALCIUM CHANNEL BLOCKERS” (priority 2008, published 2009).

Experiments:
Format in all cases: cell-based
[1] = molecular target: T1, Cav3.2 (T-type channel alpha-1H) (Homo sapiens, UniProt O95180); assay: T-type calcium channel voltage-clamp assay, Cav3.2; conditions: read-out: Cav 3.2 IC50
T1 construct: expressed in transfected cells; host or cells: HEK 293
Description: (§1) The T-type calcium channel blocking activity of the compounds of this invention may be readily determined using the methodology well known in the art described by Xia, et al., Assay and Drug Development Tech., 1 (5), 637-645 (2003).
(§2) In a typical experiment ion channel function from HEK 293 cells expressing the T-type channel alpha-1G, H, or I (CaV 3.1, 3.2, 3.3) is recorded to determine the activity of compounds in blocking the calcium current mediated by the T-type channel alpha-1G, H, or I (CaV 3.1, 3.2, 3.3). In this T-type calcium (Ca^2+) antagonist voltage-clamp assay calcium currents are elicited from the resting state of the human alpha-1G, H, or I (CaV 3.1, 3.2, 3.3) calcium channel as follows. Sequence information for T-type (Low-voltage activated) calcium channels are fully disclosed in e.g., U.S. Pat. No. 5,618,720, U.S. Pat. No. 5,686,241, U.S. Pat. No. 5,710,250,U.S. Pat. No. 5,726,035, U.S. Pat. No. 5,792,846, U.S. Pat. No. 5,846,757, U.S. Pat. No. 5,851,824, U.S. Pat. No. 5,874,236, U.S. Pat. No. 5,876,958, U.S. Pat. No. 6,013,474, U.S. Pat. No. 6,057,114, U.S. Pat. No. 6,096,514, WO 99/28342, and J. Neuroscience, 19 (6):1912-1921 (1999). Cells expressing the t-type channels were grown in H3D5 growth media which is comprised DMEM, 6% bovine calf serum (HYCLONE), 30 micromolar Verapamil, 200 microgram/ml Hygromycin B, 1× Penicillin/Streptomycin. Glass pipettes are pulled to a tip diameter of 1-2 micrometer on a pipette puller. The pipettes are filled with the intracellular solution and a chloridized silver wire is inserted along its length, which is then connected to the headstage of the voltage-clamp amplifier. Trypsinization buffer was 0.05% Trypsin, 0.53 mM EDTA. The extracellular recording solution consists of (mM): 130 mM NaCl, 4 mM KCl, 1 mM MgCl2, 2 mM CaCl2, 10 mM HEPES, 30 Glucose, pH 7.4. The internal solution consists of (mM): 135 mM CsMeSO4, 1 MgCl2, 10 CsCl, 5 EGTA, 10 HEPES, pH 7.4, or 135 mM CsCl, 2 MgCl2, 3 MgATP, 2 Na2ATP, 1 Na2GTP, 5 EGTA, 10 HEPES, pH 7.4. Upon insertion of the pipette tip into the bath, the series resistance is noted (acceptable range is between 1-4 megaohm). The junction potential between the pipette and bath solutions is zeroed on the amplifier. The cell is then patched, the patch broken, and, after compensation for series resistance (>=80%), the voltage protocol is applied while recording the whole cell Ca2+ current response. Voltage protocols: (1) −80 mV holding potential every 20 seconds pulse to −20 mV for 40 msec duration; the effectiveness of the drug in inhibiting the current mediated by the channel is measured directly from measuring the reduction in peak current amplitude initiated by the voltage shift from −80 mV to −20 mV; (2). −100 mV holding potential every 15 seconds pulse to −20 mV for 40 msec duration; the effectiveness of the drug in inhibiting the current mediated by the channel is measured directly from measuring the reduction in peak current amplitude initiated by the shift in potential from −100 mV to […]. The difference in block at the two holding potentials was used to determine the effect of drug at differing levels of inactivation induced by the level of resting state potential of the cells. After obtaining control baseline calcium currents, extracellular solutions containing increasing concentrations of a test compound are washed on. Once steady state inhibition at a given compound concentration is reached, a higher concentration of compound is applied. % inhibition of the peak inward control Ca2+ current during the depolarizing step to −20 mV is plotted as a function of compound concentration.

[2] = molecular target: T2, Cav3.1 (T-type channel alpha-1G) (Homo sapiens, UniProt O43497); assay: T-type calcium channel voltage-clamp assay, Cav3.1; conditions: read-out: Cav 3.1 IC50
T2 construct: expressed in transfected cells; host or cells: HEK 293
Description: as §1, §2

[3] = molecular target: T3, Human Cav2.2 channels (Homo sapiens, UniProt Q00975); assay: Block of Cav2.2 (N-type) channels expressed in HEK293 cells; conditions: for inhibition at 10 µM / inhibition at 30 µM: HEK293; for inhibition at 10 µM: read-out: Cav 2.2 % Inh @ 10 μM; for inhibition at 30 µM: read-out: Cav 2.2 % Inh @ 30 μM; for IC50: read-out: Cav 2.2 IC50
T3 construct: expressed in transfected cells
Excerpt: Human Cav2.2 channels were stably expressed in HEK293 cells along with alpha2-delta and beta subunits of voltage-gated calcium channels. An inwardly rectifying potassium channel (Kir2.3) was also expressed in these cells to allow more precise control of the cell membrane potential by extracellular potassium concentration. At low bath potassium concentration, the membrane potential is relatively negative, and is depolarized as the bath potassium concentration is raised. In this way, the bath potassium concentration can be used to regulate the voltage-dependent conformations of the channels. Compounds are incubated with cells in the presence of low (4 mM) potassium or elevated (12, 25 or 30 mM) potassium to determine the affinity for compound block of resting (closed) channels at 4 mM potassium or affinity for block of open and inactivated channels at 12, 25 or 30 mM potassium. After the incubation period, Cav2.2 channel opening is triggered by addition of higher concentration of potassium (70 mM final concentration) to further depolarize the cell. The degree of state-dependent block can be estimated from the inhibitory potency of compounds after incubation in different potassium concentrations.
Calcium influx through Cav2.2 channels is determined using a calcium sensitive fluorescent dye in combination with a fluorescent plate reader. Fluorescent changes were measured with either a VIPR (Aurora Instruments) or FLIPR (Molecular Devices) plate reader.
Protocol • 1. Seed cells in Poly-D-Lysine Coated 96 or 384-well plate and keep in a 37° C.-10% CO2 incubator overnight • 2. Remove media, wash cells with 0.2 mL (96-well plate) or 0.05 mL (384-well plate) Dulbecco's Phosphate Buffered Saline (D-PBS) with calcium & magnesium (Invitrogen; 14040) • 3. Add 0.1 mL (96-well plate) or 0.05 mL (384-well plate) of 4 μM fluor-4 (Molecular Probes; F-14202) and 0.02% Pluronic acid (Molecular Probes; P-3000) prepared in D-PBS with calcium & magnesium (Invitrogen; 14040) supplemented with 10 mM Glucose & 10 mM Hepes/NaOH; pH 7.4 • 4. Incubate in the dark at 25° C. for 60-70 min • 5. Remove dye, wash cells with 0.1 mL (96-well plate) or 0.06 mL (384-well plate) of 4, 12, 25, or 30 mM Potassium Pre-polarization Buffer (PPB) • 6. Add 0.1 mL (96-well plate) or 0.03 mL (384-well plate) of 4, 12, 25, 30 mM PPB with or without test compound • 7. Incubate in the dark at 25° C. for 30 min • 8. Read cell plate on VIPR instrument, Excitation=480 nm, Emission=535 nm • 9. With VIPR continuously reading, add 0.1 mL (96-well plate) or 0.03 mL (384-well plate) of Depolarization Buffer (DB), which is 2× the final assay concentration, to the cell plate.
Block of N-type calcium channels is evaluated utilizing the IonWorks HT 384 well automated patch clamp electrophysiology device. This instrument allows synchronous recording from 384 well (48 at a time). A single whole cell recording is made in each well. Whole cell recording is established by perfusion of the internal compartment with amphotericin B.
The voltage protocol is designed to detect use-dependent block. A 2 Hz train of depolarizations (twenty 25 ms steps to +20 mV). The experimental sequence consists of a control train (pre-compound), incubation of cells with compound for 5 minutes, followed by a second train (post-compound). Use dependent block by compounds is estimated by comparing fractional block of the first pulse in the train to block of the 20th pulse.
Parallel patch clamp electrophysiology is performed using IonWorks HT (Molecular Devices Corp) essentially as described by Kiss and colleagues (Kiss et al. 2003; Assay and Drug Development Technologies, 1:127-135). Briefly, a stable HEK 293 cell line (referred to as CBK) expressing the N-type calcium channel subunits (α1B, α2δ, β3a) and an inwardly rectifying potassium channel (Kir2.3) is used to record barium current through the N-type calcium channel. Cells are grown in T75 culture plates to 60-90% confluence before use. […]

T1 sequence (O95180 whole entry): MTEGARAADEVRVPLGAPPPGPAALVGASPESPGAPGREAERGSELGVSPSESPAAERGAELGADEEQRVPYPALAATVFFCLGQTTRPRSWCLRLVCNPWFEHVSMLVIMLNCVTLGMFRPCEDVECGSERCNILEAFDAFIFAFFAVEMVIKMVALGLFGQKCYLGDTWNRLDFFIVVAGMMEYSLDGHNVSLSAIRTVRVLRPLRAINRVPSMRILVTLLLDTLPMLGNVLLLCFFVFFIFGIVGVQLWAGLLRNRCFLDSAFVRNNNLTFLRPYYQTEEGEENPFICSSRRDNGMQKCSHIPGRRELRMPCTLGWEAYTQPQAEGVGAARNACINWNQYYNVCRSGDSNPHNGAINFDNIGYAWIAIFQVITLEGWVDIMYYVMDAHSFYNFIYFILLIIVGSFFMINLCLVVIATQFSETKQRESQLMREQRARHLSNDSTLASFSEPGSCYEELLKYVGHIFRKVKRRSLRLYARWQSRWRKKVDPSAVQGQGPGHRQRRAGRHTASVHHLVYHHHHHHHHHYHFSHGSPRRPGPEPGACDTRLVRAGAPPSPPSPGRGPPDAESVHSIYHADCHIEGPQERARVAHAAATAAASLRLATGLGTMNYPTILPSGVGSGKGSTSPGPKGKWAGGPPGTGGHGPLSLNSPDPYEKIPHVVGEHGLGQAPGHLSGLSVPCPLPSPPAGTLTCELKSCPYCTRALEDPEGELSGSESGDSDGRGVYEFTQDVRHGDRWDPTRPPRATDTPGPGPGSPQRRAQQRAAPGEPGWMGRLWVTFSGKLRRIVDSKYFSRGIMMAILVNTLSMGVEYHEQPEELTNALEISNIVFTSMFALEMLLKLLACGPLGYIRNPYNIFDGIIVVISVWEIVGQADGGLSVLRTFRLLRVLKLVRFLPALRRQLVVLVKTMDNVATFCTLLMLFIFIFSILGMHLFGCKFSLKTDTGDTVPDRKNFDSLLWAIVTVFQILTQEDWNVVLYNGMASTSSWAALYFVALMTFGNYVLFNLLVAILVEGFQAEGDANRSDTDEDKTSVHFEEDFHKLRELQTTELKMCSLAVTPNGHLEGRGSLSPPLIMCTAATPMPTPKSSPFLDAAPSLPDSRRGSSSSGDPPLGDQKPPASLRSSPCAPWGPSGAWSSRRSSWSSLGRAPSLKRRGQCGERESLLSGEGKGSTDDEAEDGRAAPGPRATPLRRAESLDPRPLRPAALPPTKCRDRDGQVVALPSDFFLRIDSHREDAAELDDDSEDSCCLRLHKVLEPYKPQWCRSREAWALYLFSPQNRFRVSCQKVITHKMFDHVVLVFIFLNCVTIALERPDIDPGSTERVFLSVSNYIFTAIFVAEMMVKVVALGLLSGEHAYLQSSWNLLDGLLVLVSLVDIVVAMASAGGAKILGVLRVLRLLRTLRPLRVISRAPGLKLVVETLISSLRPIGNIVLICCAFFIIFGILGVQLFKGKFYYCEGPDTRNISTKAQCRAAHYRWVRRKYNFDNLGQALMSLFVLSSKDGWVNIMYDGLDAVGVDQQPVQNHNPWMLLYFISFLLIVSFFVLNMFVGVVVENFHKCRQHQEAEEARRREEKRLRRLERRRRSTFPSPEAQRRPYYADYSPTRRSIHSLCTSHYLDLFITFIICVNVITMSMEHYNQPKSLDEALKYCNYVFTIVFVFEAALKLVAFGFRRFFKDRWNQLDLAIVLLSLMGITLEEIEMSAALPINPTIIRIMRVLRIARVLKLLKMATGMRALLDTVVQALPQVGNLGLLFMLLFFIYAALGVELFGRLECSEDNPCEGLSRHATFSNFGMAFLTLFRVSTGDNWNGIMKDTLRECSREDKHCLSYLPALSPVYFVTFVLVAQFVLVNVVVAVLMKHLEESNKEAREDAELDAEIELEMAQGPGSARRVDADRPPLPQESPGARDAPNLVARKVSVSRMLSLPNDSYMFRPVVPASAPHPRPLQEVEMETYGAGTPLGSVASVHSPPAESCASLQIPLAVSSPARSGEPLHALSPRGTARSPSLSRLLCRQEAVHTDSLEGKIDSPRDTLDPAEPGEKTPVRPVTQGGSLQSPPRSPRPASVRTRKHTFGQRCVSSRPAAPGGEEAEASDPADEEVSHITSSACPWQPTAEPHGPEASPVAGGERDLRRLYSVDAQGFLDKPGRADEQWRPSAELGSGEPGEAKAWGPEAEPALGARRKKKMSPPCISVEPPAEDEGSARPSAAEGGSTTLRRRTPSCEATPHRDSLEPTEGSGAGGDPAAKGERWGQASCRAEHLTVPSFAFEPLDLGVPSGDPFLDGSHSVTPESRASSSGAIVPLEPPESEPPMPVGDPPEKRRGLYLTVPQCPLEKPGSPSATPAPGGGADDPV
T2 sequence (O43497 whole entry): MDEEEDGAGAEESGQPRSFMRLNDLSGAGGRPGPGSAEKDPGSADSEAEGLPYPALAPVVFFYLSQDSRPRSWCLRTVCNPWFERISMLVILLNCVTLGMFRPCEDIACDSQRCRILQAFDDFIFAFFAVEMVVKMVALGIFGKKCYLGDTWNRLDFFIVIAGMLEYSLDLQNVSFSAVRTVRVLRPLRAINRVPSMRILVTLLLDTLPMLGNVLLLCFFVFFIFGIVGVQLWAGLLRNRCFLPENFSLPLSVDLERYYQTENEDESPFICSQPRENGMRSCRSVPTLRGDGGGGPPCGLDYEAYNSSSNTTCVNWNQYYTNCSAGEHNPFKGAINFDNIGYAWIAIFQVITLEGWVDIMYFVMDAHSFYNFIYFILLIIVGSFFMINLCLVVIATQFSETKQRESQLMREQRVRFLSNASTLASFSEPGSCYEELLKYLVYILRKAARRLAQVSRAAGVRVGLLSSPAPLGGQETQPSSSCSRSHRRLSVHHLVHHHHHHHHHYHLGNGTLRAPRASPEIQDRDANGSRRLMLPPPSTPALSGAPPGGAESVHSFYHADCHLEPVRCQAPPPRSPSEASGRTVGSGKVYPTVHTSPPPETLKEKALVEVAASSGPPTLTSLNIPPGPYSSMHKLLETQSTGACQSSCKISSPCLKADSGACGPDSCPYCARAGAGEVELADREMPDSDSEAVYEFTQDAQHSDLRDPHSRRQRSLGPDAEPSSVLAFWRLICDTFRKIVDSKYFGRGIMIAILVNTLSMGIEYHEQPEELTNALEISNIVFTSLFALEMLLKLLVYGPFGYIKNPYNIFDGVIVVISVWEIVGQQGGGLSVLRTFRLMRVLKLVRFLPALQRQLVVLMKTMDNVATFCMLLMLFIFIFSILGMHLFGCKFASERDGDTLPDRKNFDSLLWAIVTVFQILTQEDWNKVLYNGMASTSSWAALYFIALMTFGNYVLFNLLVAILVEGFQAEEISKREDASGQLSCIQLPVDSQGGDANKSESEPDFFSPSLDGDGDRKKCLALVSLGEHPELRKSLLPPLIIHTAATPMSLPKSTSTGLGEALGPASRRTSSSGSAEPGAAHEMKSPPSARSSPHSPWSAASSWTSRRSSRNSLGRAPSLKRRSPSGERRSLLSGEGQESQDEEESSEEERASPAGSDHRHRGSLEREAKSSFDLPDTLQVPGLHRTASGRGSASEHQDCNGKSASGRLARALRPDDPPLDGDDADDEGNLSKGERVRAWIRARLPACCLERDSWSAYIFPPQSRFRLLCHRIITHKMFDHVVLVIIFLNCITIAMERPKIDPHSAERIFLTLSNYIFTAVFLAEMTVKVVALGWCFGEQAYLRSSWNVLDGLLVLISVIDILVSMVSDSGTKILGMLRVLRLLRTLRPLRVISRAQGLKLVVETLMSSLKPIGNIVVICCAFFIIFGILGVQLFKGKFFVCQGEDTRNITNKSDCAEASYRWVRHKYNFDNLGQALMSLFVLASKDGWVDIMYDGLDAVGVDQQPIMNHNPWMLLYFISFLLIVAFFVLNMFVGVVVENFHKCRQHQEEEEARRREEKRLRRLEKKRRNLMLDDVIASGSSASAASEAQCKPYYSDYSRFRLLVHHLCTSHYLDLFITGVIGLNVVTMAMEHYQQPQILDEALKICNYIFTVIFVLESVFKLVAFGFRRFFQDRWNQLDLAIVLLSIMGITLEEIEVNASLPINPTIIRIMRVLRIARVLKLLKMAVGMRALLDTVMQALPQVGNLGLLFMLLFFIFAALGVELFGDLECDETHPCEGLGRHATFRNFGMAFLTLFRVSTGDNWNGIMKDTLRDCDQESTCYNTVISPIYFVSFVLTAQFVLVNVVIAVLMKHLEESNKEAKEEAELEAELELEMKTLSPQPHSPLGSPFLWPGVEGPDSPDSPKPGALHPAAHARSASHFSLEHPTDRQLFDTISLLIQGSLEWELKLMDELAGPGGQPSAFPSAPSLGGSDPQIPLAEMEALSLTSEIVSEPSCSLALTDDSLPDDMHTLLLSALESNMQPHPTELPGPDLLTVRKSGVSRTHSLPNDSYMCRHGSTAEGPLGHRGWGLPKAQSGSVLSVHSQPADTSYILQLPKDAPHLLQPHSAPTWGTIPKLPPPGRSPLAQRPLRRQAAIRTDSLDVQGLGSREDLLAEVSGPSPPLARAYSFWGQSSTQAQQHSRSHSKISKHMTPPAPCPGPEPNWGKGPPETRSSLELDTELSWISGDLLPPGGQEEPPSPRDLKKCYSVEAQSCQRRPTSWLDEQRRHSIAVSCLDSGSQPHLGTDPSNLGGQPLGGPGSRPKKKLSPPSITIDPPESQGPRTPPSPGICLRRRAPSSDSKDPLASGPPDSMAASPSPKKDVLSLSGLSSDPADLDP

IC50 [1] [nM] | IC50 [2] [nM] | inhibition at 10 µM [3] [%] | inhibition at 30 µM [3] [%] | IC50 [3] [nM] | Compound
1150 | 1090 | 98 | 98 | 780 | Cc1nc(C)c(C(=O)N2CCN(c3cc(C(C)(C)C)cc(C(C)(C)C)c3)CC2)s1 [Compound 32, (4-(3,5-di-tert-butylphenyl)piperazin-1-yl)(2,4-dimethylthiazol-5-yl)methanone]
2520 | 2340 | 97 | 95 | 830 | CCn1nc(C)cc1C(=O)N1CCN(c2cc(C(C)(C)C)cc(C(C)(C)C)c2)CC1 [Compound 33, (4-(3,5-di-tert-butylphenyl)piperazin-1-yl)(1-ethyl-3-methyl-1H-pyrazol-5-yl)methanone]
2290 | 2040 | 94 | 101 | 550 | Cc1nc(C(=O)N2CCN(c3cc(C(C)(C)C)cc(C(C)(C)C)c3)CC2)c(C(F)(F)F)o1 [Compound 37, (4-(3,5-di-tert-butylphenyl)piperazin-1-yl)(2-methyl-5-(trifluoromethyl)oxazol-4-yl)methanone]
2230 | 1490 | 107 | 98 | 850 | CCOc1ncccc1C(=O)N1CCN(c2cc(C(C)(C)C)cc(C(C)(C)C)c2)CC1 [Compound 38, (4-(3,5-di-tert-butylphenyl)piperazin-1-yl)(2-ethoxypyridin-3-yl)methanone]
1410 | 1510 | 102 | 107 | 830 | Cc1nc(C(F)(F)F)c(C(=O)N2CCN(c3cc(C(C)(C)C)cc(C(C)(C)C)c3)CC2)s1 [Compound 41, (4-(3,5-di-tert-butylphenyl)piperazin-1-yl)(2-methyl-4-(trifluoromethyl)thiazol-5-yl)methanone]
1800 | 960 | 97 | 101 | 1080 | CCSc1ncccc1C(=O)N1CCN(c2cc(C(C)(C)C)cc(C(C)(C)C)c2)CC1 [Compound 45, (4-(3,5-di-tert-butylphenyl)piperazin-1-yl)(2-(ethylthio)pyridin-3-yl)methanone]

The remaining lines, values behind:

Compound | IC50 [1] [nM] | IC50 [2] [nM] | inhibition at 10 µM [3] [%] | inhibition at 30 µM [3] [%] | IC50 [3] [nM]
CC(C)c1cc(C(=O)N2CCN(c3cc(C(C)(C)C)cc(C(C)(C)C)c3)CC2)cs1 [Compound 23, (4-(3,5-di-tert-butylphenyl)piperazin-1-yl)(5-isopropylthiophen-3-yl)methanone] | 870 | 800 | 90 | 97 | 1400
Cc1ccc(C(=O)N2CCN(c3cc(C(C)(C)C)cc(C(C)(C)C)c3)CC2)s1 [Compound 28, (4-(3,5-di-tert-butylphenyl)piperazin-1-yl)(5-methylthiophen-2-yl)methanone] | 960 | 800 | 87 | 101 | 2400
Cc1ccsc1C(=O)N1CCN(c2cc(C(C)(C)C)cc(C(C)(C)C)c2)CC1 [Compound 29, (4-(3,5-di-tert-butylphenyl)piperazin-1-yl)(3-methylthiophen-2-yl)methanone] | 1010 | 840 | 88 | 101 | 2000
Cc1nc(C(F)(F)F)ccc1C(=O)N1CCN(c2cc(C(C)(C)C)cc(C(C)(C)C)c2)CC1 [Compound 30, (4-(3,5-di-tert-butylphenyl)piperazin-1-yl)(2-methyl-6-(trifluoromethyl)pyridin-3-yl)methanone] | 1150 | 970 | 91 | 100 | 1300
CCCSc1ncccc1C(=O)N1CCN(c2cc(C(C)(C)C)cc(C(C)(C)C)c2)CC1 [Compound 31, (4-(3,5-di-tert-butylphenyl)piperazin-1-yl)(2-(propylthio)pyridin-3-yl)methanone] | 1590 | 1250 | 99 | 104 | 850
